Columns and labels:
CCRF-CEM = assay: NCI 60 panel growth inhibition (SRB), leukemia; type: cell-based, human; details: 10 μM
Method in brief: (§1)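 24 h post-seeding: Tz fixation, drug added at five concentrations. Adherent lines stopped with cold TCA, washed, dried, SRB read. Growth % vs control and Tz; TGI at Ti = Tz.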

HL-60(TB) = assay: NCI 60 panel growth inhibition (SRB), leukemia; type: cell-based, human; details: HL-60(TB), 10 μM
Method in brief: as §1

K-562 = assay: NCI 60 panel growth inhibition (SRB), leukemia; type: cell-based, human; details: K-562, 10 μM
Method in brief: as §1

MOLT-4 = assay: NCI 60 panel growth inhibition (SRB), leukemia; type: cell-based, human; details: MOLT-4, 10 μM
Method in brief: as §1

RPMI-8226 = assay: NCI 60 panel growth inhibition (SRB), leukemia; type: cell-based, human; details: RPMI-8226, 10 μM
Method in brief: as §1

SR = assay: NCI 60 panel growth inhibition (SRB), leukemia; type: cell-based, human; details: 10 μM
Method in brief: as §1

SF-268 = assay: NCI 60 panel growth inhibition (SRB), CNS cancer; type: cell-based, human; details: SF-268, 10 μM
Method in brief: as §1

SF-295 = assay: NCI 60 panel growth inhibition (SRB), CNS cancer; type: cell-based, human; details: SF-295, 10 μM
Method in brief: as §1

SF-539 = assay: NCI 60 panel growth inhibition (SRB), CNS cancer; type: cell-based, human; details: SF-539, 10 μM
Method in brief: as §1

SNB-19 = assay: NCI 60 panel growth inhibition (SRB), CNS cancer; type: cell-based, human; details: SNB-19, 10 μM
Method in brief: as §1

SNB-75 = assay: NCI 60 panel growth inhibition (SRB), CNS cancer; type: cell-based, human; details: SNB-75, 10 μM
Method in brief: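 Two-stage NCI process: single-dose screen, then five-concentration testing of selected compounds. Growth relative to time-zero and untreated controls was derived from SRB absorbance, and TGI from the concentration giving Ti = Tz.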

U251 = assay: NCI 60 panel growth inhibition (SRB), CNS cancer; type: cell-based, human; details: U251, 10 μM
Method in brief: as §1

LOX IMVI = assay: NCI 60 panel growth inhibition (SRB), melanoma; type: cell-based, human; details: 10 μM
Method in brief: as §1

M14 = assay: NCI 60 panel growth inhibition (SRB), melanoma; type: cell-based, human; details: M14, 10 μM
Method in brief: as §1

MALME-3M = assay: NCI 60 panel growth inhibition (SRB), melanoma; type: cell-based, human; details: 10 μM
Method in brief: as §1

MDA-MB-435 = assay: NCI 60 panel growth inhibition (SRB), melanoma; type: cell-based, human; details: MDA-MB-435, 10 μM
Method in brief: as §1

SK-MEL-28 = assay: NCI 60 panel growth inhibition (SRB), melanoma; type: cell-based, human; details: SK-MEL-28, 10 μM
Method in brief: as §1

SK-MEL-5 = assay: NCI 60 panel growth inhibition (SRB), melanoma; type: cell-based, human; details: SK-MEL-5, 10 μM
Method in brief: as §1

UACC-257 = assay: NCI 60 panel growth inhibition (SRB), melanoma; type: cell-based, human; details: UACC-257, 10 μM
Method in brief: as §1

UACC-62 = assay: NCI 60 panel growth inhibition (SRB), melanoma; type: cell-based, human; details: UACC-62, 10 μM
Method in brief: as §1

IGROV1 = assay: NCI 60 panel growth inhibition (SRB), ovarian cancer; type: cell-based, human; details: IGROV1, 10 μM
Method in brief: as §1

OVCAR-3 = assay: as above; type: cell-based, human; details: OVCAR-3, 10 μM
Method in brief: as §1

OVCAR-4 = assay: as above; type: cell-based, human; details: OVCAR-4, 10 μM
Method in brief: as §1

OVCAR-5 = assay: as above; type: cell-based, human; details: OVCAR-5, 10 μM
Method in brief: as §1

SK-OV-3 = assay: as above; type: cell-based, human; details: SK-OV-3, 10 μM
Method in brief: as §1

CDK2 = target: T1, CDK2 (Homo sapiens, UniProt P24941); assay: CDK2 kinase assay (BPS kit, Kinase-Glo Max); type: biochemical; details: mean of two independent experiments ± SD
T1 construct: purchased BPS Biosciences 79599

HT29 = assay: NCI 60 panel growth inhibition (SRB), colon cancer; type: cell-based, human; details: HT29, 10 μM
Method in brief: as §1

SK-MEL-2 = assay: NCI 60 panel growth inhibition (SRB), melanoma; type: cell-based, human; details: SK-MEL-2, 10 μM
Method in brief: as §1

Cc1ccc2c(c1)C(=NNC(=O)COc1ccccc1-c1nc3ccccc3s1)C(=O)N2 [Compound 9b, 2-(2-(Benzo[d]thiazol-2-yl)phenoxy)-N′-(5-methyl-2-oxoindolin-3-ylidene)acetohydrazide]
GI% (CCRF-CEM): 23.64% | GI% (HL-60(TB)): 8.38% | GI% (K-562): 20.57% | GI% (MOLT-4): 29.12% | GI% (RPMI-8226): 30.53% | GI% (SR): 18.71% | GI% (SF-268): 43.82% | GI% (SF-295): 44.34% | GI% (SF-539): 76.88% | GI% (SNB-19): 74.25% | GI% (SNB-75): 54.28% | GI% (U251): 56.51% | GI% (LOX IMVI): 84.01% | GI% (M14): 11.64% | GI% (MALME-3M): 57.82% | GI% (MDA-MB-435): 17.86% | GI% (SK-MEL-28): – (GI% < 5%) | GI% (SK-MEL-5): 62.70% | GI% (UACC-257): – (GI% < 5%) | GI% (UACC-62): 33.71% | GI% (IGROV1): 35.91% | GI% (OVCAR-3): 79.13% | GI% (OVCAR-4): 99.49% | GI% (OVCAR-5): 7.29% | GI% (SK-OV-3): 15.84% | IC50 (CDK2): 0.7 ± 0.013 µM

O=C(COc1ccccc1-c1nc2ccccc2s1)NN=C1C(=O)Nc2ccc(Cl)cc21 [Compound 9e, 2-(2-(Benzo[d]thiazol-2-yl)phenoxy)-N′-(5-chloro-2-oxoindolin-3-ylidene)acetohydrazide]
GI% (CCRF-CEM): –^a (GI% < 5%) | GI% (HL-60(TB)): – (GI% < 5%) | GI% (K-562): – (GI% < 5%) | GI% (MOLT-4): – (GI% < 5%) | GI% (RPMI-8226): – (GI% < 5%) | GI% (SR): 6.46% | GI% (HT29): – (GI% < 5%) | GI% (SF-268): – (GI% < 5%) | GI% (SF-295): – (GI% < 5%) | GI% (SF-539): – (GI% < 5%) | GI% (SNB-19): – (GI% < 5%) | GI% (SNB-75): – (GI% < 5%) | GI% (U251): – (GI% < 5%) | GI% (LOX IMVI): 8.86% | GI% (M14): – (GI% < 5%) | GI% (MALME-3M): – (GI% < 5%) | GI% (MDA-MB-435): – (GI% < 5%) | GI% (SK-MEL-28): – (GI% < 5%) | GI% (SK-MEL-2): – (GI% < 5%) | GI% (SK-MEL-5): 5.89% | GI% (UACC-257): – (GI% < 5%) | GI% (UACC-62): 10.86% | GI% (IGROV1): – (GI% < 5%) | GI% (OVCAR-3): – (GI% < 5%) | GI% (OVCAR-4): – (GI% < 5%) | GI% (OVCAR-5): – (GI% < 5%) | GI% (SK-OV-3): – (GI% < 5%)

— PMC11396129, “Oxindole–benzothiazole hybrids as CDK2 inhibitors and anticancer agents: design, synthesis and biological evaluation” (BMC Chemistry, 2024)
